# Measurements from patent publication US20210347728A1, “4,5-DIHYDROXY-2-(4-METHYLBENZYL)ISOPHTHALONITRILE SOLVATES AND CRYSTALLINE FORMS THEREOF” (Orion Corporation, priority 2018, published 2021).
# Experiment: Stability and conversion of crystalline forms with relative humidity
# Format: physicochemical
# Conditions: humidity range not specified
compound,measurement,value
"Cc1ccc(Cc2c(C#N)cc(O)c(O)c2C#N)cc1 [Form II monohydrate, 4,5-dihydroxy-2-(4-methylbenzyl)isophthalonitrile monohydrate]",stability of the crystalline form with humidity,stable within a reasonable humidity range
